Laboratory results published in patent US11135234B2, “Effective aminoglycoside antibiotic for multidrug-resistant bacteria” (MICROBIAL CHEMISTRY RESEARCH FOUNDATION, priority 2015, dated 2021).
In brackets after ≈: the same amount, converted by molar mass.

Legend:
[1] = system: P. aeruginosa MSC17707; experiment: MIC, agar plate dilution method, P. aeruginosa MSC17707; format: cell-based, Pseudomonas aeruginosa; conditions: for minimal inhibitory concentration (MIC): P. aeruginosa MSC17707, AMK-resistant
Summary of the method: (§1)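 Japan Society of Chemotherapy agar dilution protocol used. MIC reported in μg/mL.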

[2] = system: S. aureus MF490; experiment: MIC, agar plate dilution method, S. aureus MF490; format: cell-based, Staphylococcus aureus; conditions: for minimal inhibitory concentration (MIC): S. aureus MF490, MRSA
Summary of the method: as §1

[3] = system: A. baumannii ATCC BAA-1710; experiment: MIC, agar plate dilution method, A. baumannii ATCC BAA-1710; format: cell-based, Acinetobacter baumannii; conditions: for minimal inhibitory concentration (MIC): A. baumannii ATCC BAA-1710, MDRA
Summary of the method: as §1

[4] = system: K. pneumoniae ATCC BAA-1705; experiment: MIC, agar plate dilution method, K. pneumoniae ATCC BAA-1705; format: cell-based, Klebsiella pneumoniae; conditions: for minimal inhibitory concentration (MIC): K. pneumoniae ATCC BAA-1705, KPC-producing strain
Summary of the method: as §1

[5] = system: E. coli JM109/pMW218; experiment: MIC, agar plate dilution method, E. coli JM109/pMW218; format: cell-based, Escherichia coli; conditions: for minimal inhibitory concentration (MIC): E. coli JM109/pMW218, Sensitive bacterium
Summary of the method: as §1

[6] = system: S. marcescens TH-0447; experiment: MIC, agar plate dilution method, S. marcescens TH-0447; format: cell-based, Serratia marcescens; conditions: for minimal inhibitory concentration (MIC): S. marcescens TH-0447, AMK-resistant
Summary of the method: as §1

[7] = system: K. pneumoniae ATCC BAA-2146; experiment: MIC, agar plate dilution method, K. pneumoniae ATCC BAA-2146; format: cell-based, Klebsiella pneumoniae; conditions: for minimal inhibitory concentration (MIC): K. pneumoniae ATCC BAA-2146, NDM-producing strain
Summary of the method: as §1

[8] = system: P. aeruginosa MSC01035; experiment: MIC, agar plate dilution method, P. aeruginosa MSC01035; format: cell-based, Pseudomonas aeruginosa; conditions: P. aeruginosa MSC01035, ABK-resistant
Summary of the method: as §1

[9] = system: P. aeruginosa PAO1; experiment: MIC, agar plate dilution method, P. aeruginosa PAO1; format: cell-based, Pseudomonas aeruginosa; conditions: for minimal inhibitory concentration (MIC): P. aeruginosa PAO1, Sensitive bacterium
Summary of the method: as §1

[10] = system: S. aureus RN4220/pMS520; experiment: MIC, agar plate dilution method, S. aureus RN4220/pMS520; format: cell-based, Staphylococcus aureus; conditions: for minimal inhibitory concentration (MIC): S. aureus RN4220/pMS520, MRSA
Summary of the method: as §1

[11] = system: S. marcescens GN6944; experiment: MIC, agar plate dilution method, S. marcescens GN6944; format: cell-based, Serratia marcescens; conditions: S. marcescens GN6944, GM-resistant
Summary of the method: as §1

[12] = system: E. faecium ATCC19434; experiment: MIC, agar plate dilution method, E. faecium ATCC19434; format: cell-based, Enterococcus faecium; conditions: for minimal inhibitory concentration (MIC): E. faecium ATCC19434
Summary of the method: as §1

[13] = system: P. aeruginosa PAO1/GN315; experiment: MIC, agar plate dilution method, P. aeruginosa PAO1/GN315; format: cell-based, Pseudomonas aeruginosa; conditions: for minimal inhibitory concentration (MIC): P. aeruginosa PAO1/GN315, AMK-resistant
Summary of the method: as §1

[14] = system: S. aureus RN4220; experiment: MIC, agar plate dilution method, S. aureus RN4220; format: cell-based, Staphylococcus aureus; conditions: for minimal inhibitory concentration (MIC): S. aureus RN4220, Sensitive bacterium
Summary of the method: as §1

SMILES	minimal inhibitory concentration (MIC) [1] [µg/mL]	minimal inhibitory concentration (MIC) [2] [µg/mL]	minimal inhibitory concentration (MIC) [3] [µg/mL]	minimal inhibitory concentration (MIC) [4] [µg/mL]	minimal inhibitory concentration (MIC) [5] [µg/mL]	minimal inhibitory concentration (MIC) [6] [µg/mL]	minimal inhibitory concentration (MIC) [7] [µg/mL]	minimal inhibitory concentration (MIC) [8] [µg/mL]	minimal inhibitory concentration (MIC) [9] [µg/mL]	minimal inhibitory concentration (MIC) [10] [µg/mL]	minimal inhibitory concentration (MIC) [11] [µg/mL]	minimal inhibitory concentration (MIC) [12] [µg/mL]	minimal inhibitory concentration (MIC) [13] [µg/mL]	minimal inhibitory concentration (MIC) [14] [µg/mL]	further results
CNC1C(O[C@H]2OC(CO)[C@@H](NC)[C@H](O)C2O)O[C@H]2CC(N)[C@@H](O[C@@H]3C(N)C[C@@H](N)C(O)[C@H]3O)OC2C1O (stereo partly drawn) [Compound S1-f, 5-epi-4″-N-methylapramycin]	8 (≈ 14.5 µM)	8 (≈ 14.5 µM)	8 (≈ 14.5 µM)	2 (≈ 3.61 µM)	1 (≈ 1.81 µM)	8 (≈ 14.5 µM)	1 (≈ 1.81 µM)	8 (≈ 14.5 µM)	4 (≈ 7.23 µM)	2 (≈ 3.61 µM)	4 (≈ 7.23 µM)	16 (≈ 28.9 µM)	4 (≈ 7.23 µM)	2 (≈ 3.61 µM)	
CNC1C(O[C@H]2OC(CO)[C@@H](NCCN)[C@H](O)C2O)O[C@H]2CC(N)[C@@H](O[C@@H]3C(N)C[C@@H](N)C(O)[C@H]3O)OC2C1O (some centres unmarked) [Compound S1-g, 4″-N-(2-aminoethyl)-5-epiapramycin]															MIC ([1]; Pseudomonas aeruginosa, MSC17707, P. aeruginosa MSC17707, AMK-resistant, read-out: minimal inhibitory concentration (MIC)): 4 µg/mL (≈ 6.87 µM); MIC ([2]; Staphylococcus aureus, MRSA, read-out: minimal inhibitory concentration (MIC)): 8 µg/mL (≈ 13.7 µM); MIC ([3]; Acinetobacter baumannii, ATCCBAA1710, A. baumannii ATCC BAA-1710, MDRA, read-out: minimal inhibitory concentration (MIC)): 4 µg/mL (≈ 6.87 µM); MIC ([4]; Klebsiella pneumoniae, ATCCBAA1705, K. pneumoniae ATCC BAA-1705, KPC-producing strain, read-out: minimal inhibitory concentration (MIC)): 2 µg/mL (≈ 3.43 µM); MIC ([5]; Escherichia coli, JM109/PMW218, E. coli JM109/pMW218, Sensitive bacterium, read-out: minimal inhibitory concentration (MIC)): 1 µg/mL (≈ 1.72 µM); MIC ([6]; Serratia marcescens, TH0447, S. marcescens TH-0447, AMK-resistant, read-out: minimal inhibitory concentration (MIC)): 8 µg/mL (≈ 13.7 µM); MIC ([7]; Klebsiella pneumoniae, ATCCBAA2146, K. pneumoniae ATCC BAA-2146, NDM-producing strain, read-out: minimal inhibitory concentration (MIC)): 2 µg/mL (≈ 3.43 µM); MIC ([8]; Pseudomonas aeruginosa, read-out: minimal inhibitory concentration (MIC)): 8 µg/mL (≈ 13.7 µM); MIC ([9]; Pseudomonas aeruginosa, PAO1, P. aeruginosa PAO1, Sensitive bacterium, read-out: minimal inhibitory concentration (MIC)): 4 µg/mL (≈ 6.87 µM); MIC ([10]; Staphylococcus aureus, MRSA, read-out: minimal inhibitory concentration (MIC), S. aureus RN4220/pMS520, MRSA): 2 µg/mL (≈ 3.43 µM); MIC ([11]; Serratia marcescens, read-out: minimal inhibitory concentration (MIC)): 8 µg/mL (≈ 13.7 µM); MIC ([12]; Enterococcus faecium, ATCC19434, E. faecium ATCC19434, read-out: minimal inhibitory concentration (MIC)): 16 µg/mL (≈ 27.5 µM); MIC ([13]; Pseudomonas aeruginosa, read-out: minimal inhibitory concentration (MIC), P. aeruginosa PAO1/GN315, AMK-resistant): 4 µg/mL (≈ 6.87 µM); MIC ([14]; Staphylococcus aureus, RN4220, S. aureus RN4220, Sensitive bacterium, read-out: minimal inhibitory concentration (MIC)): 4 µg/mL (≈ 6.87 µM)
CNC1C(O[C@H]2OC(CO)[C@@H](NCCCN)[C@H](O)C2O)O[C@H]2CC(N)[C@@H](O[C@@H]3C(N)C[C@@H](N)C(O)[C@H]3O)OC2C1O (some centres unmarked) [Compound S1-h, 4″-N-(3-aminopropyl)-5-epiapramycin]	4 (≈ 6.7 µM)	8 (≈ 13.4 µM)	8 (≈ 13.4 µM)	2 (≈ 3.35 µM)	1 (≈ 1.68 µM)	8 (≈ 13.4 µM)	1 (≈ 1.68 µM)	8 (≈ 13.4 µM)	4 (≈ 6.7 µM)	2 (≈ 3.35 µM)	8 (≈ 13.4 µM)	16 (≈ 26.8 µM)	4 (≈ 6.7 µM)	2 (≈ 3.35 µM)	
CN[C@@H]1[C@@H](O[C@H]2O[C@H](CO)[C@@H](NC(CN)CN)[C@H](O)[C@H]2O)O[C@H]2C[C@@H](N)[C@@H](O[C@H]3[C@@H](O)[C@@H](O)[C@H](N)C[C@@H]3N)O[C@@H]2[C@@H]1O [Compound S1-i, 4″-N-(1,3-diaminopropan-2-yl)-5-epiapramycin]	2 (≈ 3.27 µM)	4 (≈ 6.54 µM)	4 (≈ 6.54 µM)	1 (≈ 1.63 µM)	1 (≈ 1.63 µM)	8 (≈ 13.1 µM)	2 (≈ 3.27 µM)	4 (≈ 6.54 µM)	2 (≈ 3.27 µM)	2 (≈ 3.27 µM)	4 (≈ 6.54 µM)	4 (≈ 6.54 µM)	4 (≈ 6.54 µM)	2 (≈ 3.27 µM)	
